pIC50: −log10 of the molar value.
Target: T1, Angiotensin II Receptor (Rattus norvegicus, UniProt P25095)
T1 construct: A fresh membrane preparation obtained from rat's liver was used; from tissue; host or cells: rat liver, fresh membrane preparation
T1 sequence (P25095 1-359): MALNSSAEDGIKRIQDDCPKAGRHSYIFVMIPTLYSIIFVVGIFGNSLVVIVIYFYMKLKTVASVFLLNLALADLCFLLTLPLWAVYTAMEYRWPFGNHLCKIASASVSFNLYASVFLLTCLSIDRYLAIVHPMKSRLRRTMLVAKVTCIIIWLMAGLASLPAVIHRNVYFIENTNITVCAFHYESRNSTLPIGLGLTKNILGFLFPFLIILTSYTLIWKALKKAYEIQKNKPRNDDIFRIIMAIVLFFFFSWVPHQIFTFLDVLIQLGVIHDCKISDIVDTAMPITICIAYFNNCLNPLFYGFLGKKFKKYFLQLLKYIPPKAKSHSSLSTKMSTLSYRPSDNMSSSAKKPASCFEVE
Assay: Test on the Angiotensin II Receptor: displacement of 125I angiotensin II from a fresh rat liver membrane preparation
Type: binding
Settings: rat liver membranes; 125I angiotensin II (25,000 DPM/tube); Tris buffer pH 7.4; 25° C. for 150 minutes; 7 concentrations; read-out: 50% inhibiting concentration (IC50), concentration necessary to displace 50% of the radioactivity specifically fixed on the receptor
Protocol: A fresh membrane preparation obtained from rat's liver was used and the tissue was ground in a polytron in a Tris 50mMpH 7.4 buffer. The grinding was followed by 3 centrifugations at 30,000 g for 15 minutes with intermediate collection of pellets in the Tris buffer pH 7.4. The last pellets were suspended in an incubation buffer (Tris 20 mM, NaCl […], KCl 10 mM, glucose 5 mM, MgCl2 10 mM, PMSF 0.3 mM, bacitracin 0.1 mM, BSA 0.2%). The 2 ml of aliquoted fractions were distributed in hemolysis tubes and ^125 I angiotensin II (25,000 DPM/tube) and the product to be studied were added. The product was first tested at 3×10^-5 M in triplicate. When the product to be tested displaced more than 50% of the radioactivity specifically linked to the receptor, it was tested again in a range of 7 concentrations to determine the concentration which inhibited 50% of the radioactivity specifically linked to the receptor. In this way, the 50% inhibiting concentration was determined.
The non-specific bond was determined by the addition of the product of Example 94 of the European Patent No. 0,253,310, at 10^-5 M (in triplicate). Incubation took place at 25° C. for 150 minutes, followed by returning to a water bath at 0° C. for 5 minutes, vacuum filtration, rinsing with Tris buffer pH 7.4 and counting the radioactivity in the presence of scintilling Triton. […]

pIC50: 6.62
Compound: CCCCc1nc(Cl)c(CC(=O)O)c(Cc2ccc(-c3ccccc3C(=O)O)cc2)n1 [Example 8, 2-butyl-4-[(2'-carboxy-(1,1'-biphenyl)-4-yl)-methyl)-6-chloro-5-pyrimidineacetic acid]
